Values quoted from earlier work, collected in patent US20250231185A1, “Coronavirus T Cell Epitopes, Megapools and Uses Thereof” (La Jolla Institute for Immunology, priority 2021, published 2025).

Tested on: CD8+ T cells
Conditions: CD8R (D) megapool epitopes; dominant = recognized by 3 or more donors/different studies; cited from earlier work
For 1695 (LLLLDRLNQL) [compound 1695], the Dominant is given as “Yes (more dominant epitopes are defined by being recognized by 3 or more donors/different studies)”. In the case of 1735 (VYRGTTTYKL) [compound 1735], the Dominant is given as “Yes (more dominant epitopes are defined by being recognized by 3 or more donors/different studies)”. For 1733 (VVYRGTTTY) [compound 1733], the Dominant is given as “Yes (more dominant epitopes are defined by being recognized by 3 or more donors/different studies)”. In the case of 1785 (FLLPSLATV) [compound 1785], the Dominant is given as “Yes (more dominant epitopes are defined by being recognized by 3 or more donors/different studies)”. For 1691 (ATEGALNTPK) [compound 1691], the Dominant is listed as “Yes (more dominant epitopes are defined by being recognized by 3 or more donors/different studies)”. In the case of 1710 (FSKQLQQSM) [compound 1710], the Dominant is given as “Yes (more dominant epitopes are defined by being recognized by 3 or more donors/different studies)”. For 1776 (FLLNKEMYL) [compound 1776], the Dominant is given as “Yes (more dominant epitopes are defined by being recognized by 3 or more donors/different studies)”.

Same assay, conditions: CD8RE megapool peptides (non-spike SARS-CoV-2 antigens); dominant epitope Yes/No; cited from earlier work
In the case of 2951 (LLMPILTLT) [compound 2951], the Dominant is listed as “Yes (more dominant epitopes are defined by being recognized by 3 or more donors/different studies)”. For 3037 (IPIQASLPF) [compound 3037], the Dominant is listed as “Yes (more dominant epitopes are defined by being recognized by 3 or more donors/different studies)”. In the case of 3042 (LLYDANYFL) [compound 3042], the Dominant is given as “Yes (more dominant epitopes are defined by being recognized by 3 or more donors/different studies)”. For 2990 (KMQRMLLEK) [compound 2990], the Dominant is given as “Yes (more dominant epitopes are defined by being recognized by 3 or more donors/different studies)”. For 2971 (KLNVGDYFV) [compound 2971], the Dominant is listed as “Yes (more dominant epitopes are defined by being recognized by 3 or more donors/different studies)”. In the case of 2968 (VVYRGTTTY) [compound 2968], the Dominant is listed as “Yes (more dominant epitopes are defined by being recognized by 3 or more donors/different studies)”. In the case of 3053 (LEYHDVRVVL) [compound 3053], the Dominant is given as “Yes (more dominant epitopes are defined by being recognized by 3 or more donors/different studies)”. In the case of 3018 (FLNRFTTTL) [compound 3018], the Dominant is listed as “Yes (more dominant epitopes are defined by being recognized by 3 or more donors/different studies)”. In the case of 2954 (ISDYDYYRY) [compound 2954], the Dominant is listed as “Yes (more dominant epitopes are defined by being recognized by 3 or more donors/different studies)”. In the case of 2928 (VLQLPQGTTL) [compound 2928], the Dominant is listed as “Yes (more dominant epitopes are defined by being recognized by 3 or more donors/different studies)”. For 2923 (LSPRWYFYYL) [compound 2923], the Dominant is given as “Yes (more dominant epitopes are defined by being recognized by 3 or more donors/different studies)”. For 2936 (AQFAPSASAF) [compound 2936], the Dominant is given as “Yes (more dominant epitopes are defined by being recognized by 3 or more donors/different studies)”.

Same assay, conditions: Habel et al., 14 peptides screened; HLA-A*02:01; cited from earlier work
In the case of VLNDILSRL [SEQ ID NO: 1508], the IFN-f response is given as “less prominently recognized”.

Same assay, conditions: SARS-CoV-2-derived CD8 epitopes; dominant = recognized by 3 or more donors/different studies; cited from earlier work
For 540 (GMEVTPSGTWLTY) [compound 540], the Dominant is listed as “Yes (more dominant epitopes are defined by being recognized by 3 or more donors/different studies)”.

Same assay, conditions: SARS-CoV-2 Ag S; T cell type recognizing the epitope; cited from earlier work
In the case of 1388 (TDEMIAQY) [compound 1388], the Restriction is listed as “CD8”. In the case of 1402 (ALNTLVKQL) [compound 1402], the Restriction is given as “CD8”. In the case of 1381 (LADAGFIKQY) [compound 1381], the Restriction is given as “CD8”. In the case of 1300 (KVGGNYNYLY) [compound 1300], the Restriction is given as “CD8”. In the case of 1312 (NGVEGFNCY) [compound 1312], the Restriction is listed as “CD8”.

Same assay, conditions: T cell subset (CD4 or CD8) recognizing the SARS-CoV-2-derived epitope; cited from earlier work
In the case of 540 (GMEVTPSGTWLTY) [compound 540], the Restriction is given as “CD8”. In the case of 529 (ELIRQGTDY) [compound 529], the Restriction is listed as “CD8”.

Same assay, conditions: T cell type (CD4 or CD8) recognizing the SARS-CoV-2 epitope; cited from earlier work
For 949 (SFGPLVRKI) [compound 949], the Restriction is listed as “CD8”. For 919 (VPANSTVLSF) [compound 919], the Restriction is given as “CD8”. For 934 (VENPDILRV) [compound 934], the Restriction is listed as “CD8”. In the case of 977 (SICSTMTNR) [compound 977], the Restriction is given as “CD8”. In the case of 967 (KSAGFPFNKW) [compound 967], the Restriction is listed as “CD8”.
